Data as given in ChEMBL document CHEMBL5335843, “Application of tobramycin benzyl ether as an antibiotic adjuvant capable of sensitizing multidrug-resistant Gram-negative bacteria to rifampicin” (2024).

Assays:
Assay type in all cases: functional
[1] = test system: Escherichia coli; experiment: Antibiotic adjuvant activity against Escherichia coli ATCC 25922 assessed as rifampicin MIC incubated for 18 hrs in presence of Rifampicin by two fold broth microdilution checkerboard assay
[2] = test system: Acinetobacter baumannii; experiment: Antibiotic adjuvant activity against multi-drug resistant Acinetobacter baumannii clinical isolate AB031 assessed as inhibition of bacterial growth incubated for 18 hrs in presence of Rifampicin by two fold broth microdilution checkerboard assay
[3] = test system: Acinetobacter baumannii; experiment: Antibacterial activity against Acinetobacter baumannii ATCC 17978 assessed as inhibition of bacterial growth incubated for 18 hrs by two fold broth microdilution assay
[4] = test system: Enterococcus faecium; experiment: Antibiotic adjuvant activity against Enterococcus faecium 114278 assessed as inhibition of bacterial growth incubated for 18 hrs in presence of rifampicin by two fold broth microdilution checkerboard assay
[5] = test system: Enterococcus faecium; experiment: Antibiotic adjuvant activity against Enterococcus faecium 128149 assessed as fractional inhibitory concentration index incubated for 18 hrs in presence of rifampicin by two fold broth microdilution checkerboard assay
[6] = test system: Escherichia coli; experiment: Antibiotic adjuvant activity against multi-drug resistant Escherichia coli clinical isolate EC94474 assessed as doxycycline MIC incubated for 18 hrs in presence of doxycycline by two fold broth microdilution checkerboard assay
[7] = test system: Pseudomonas aeruginosa; experiment: Antibiotic adjuvant activity against multi-drug resistant Pseudomonas aeruginosa clinical isolate PA101243 assessed as fractional inhibitory concentration index incubated for 18 hrs in presence of doxycycline by two fold broth microdilution checkerboard assay
[8] = test system: Pseudomonas aeruginosa; experiment: Antibiotic adjuvant activity against multi-drug resistant Pseudomonas aeruginosa clinical isolate PA101243 assessed as fold potentiation incubated for 18 hrs in presence of doxycycline by two fold broth microdilution checkerboard assay
[9] = test system: Escherichia coli; experiment: Antibiotic adjuvant activity against Escherichia coli ATCC 25922 assessed as fold potentiation incubated for 18 hrs in presence of vancomycin by two fold broth microdilution checkerboard assay
[10] = test system: Acinetobacter baumannii; experiment: Antibiotic adjuvant activity against Acinetobacter baumannii ATCC 17978 assessed as novobiocin MIC incubated for 18 hrs in presence of novobiocin by two fold broth microdilution checkerboard assay
[11] = test system: Pseudomonas aeruginosa; experiment: Antibiotic adjuvant activity against multi-drug resistant Pseudomonas aeruginosa clinical isolate PA114228 assessed as fractional inhibitory concentration index incubated for 18 hrs in presence of minocycline by two fold broth microdilution checkerboard assay
[12] = test system: Acinetobacter baumannii; experiment: Antibiotic adjuvant activity against Acinetobacter baumannii ATCC 17978 assessed as minocycline MIC incubated for 18 hrs in presence of minocycline by two fold broth microdilution checkerboard assay
[13] = test system: Escherichia coli; experiment: Antibiotic adjuvant activity against multi-drug resistant Escherichia coli clinical isolate 94474 assessed as fractional inhibitory concentration index incubated for 18 hrs in presence of Rifampicin by two fold broth microdilution checkerboard assay
[14] = test system: Pseudomonas aeruginosa; experiment: Antibiotic adjuvant activity against multi-drug resistant Pseudomonas aeruginosa clinical isolate PA264 assessed as doxycycline MIC incubated for 18 hrs in presence of doxycycline by two fold broth microdilution checkerboard assay
[15] = test system: Enterococcus faecium; experiment: Antibiotic adjuvant activity against Enterococcus faecium 128149 assessed as fold potentiation incubated for 18 hrs in presence of rifampicin by two fold broth microdilution checkerboard assay
[16] = test system: Escherichia coli; experiment: Antibiotic adjuvant activity against multi-drug resistant Escherichia coli clinical isolate 94393 assessed as fractional inhibitory concentration index incubated for 18 hrs in presence of Rifampicin by two fold broth microdilution checkerboard assay
[17] = test system: Escherichia coli; experiment: Antibiotic adjuvant activity against multi-drug resistant Escherichia coli clinical isolate EC94474 assessed as inhibition of bacterial growth incubated for 18 hrs in presence of minocycline by two fold broth microdilution checkerboard assay
[18] = test system: Acinetobacter baumannii; experiment: Antibiotic adjuvant activity against Acinetobacter baumannii ATCC 17978 assessed as fold potentiation incubated for 18 hrs in presence of rifampicin and FBS media by two fold broth microdilution checkerboard assay
[19] = test system: Pseudomonas aeruginosa; experiment: Antibiotic adjuvant activity against multi-drug resistant Pseudomonas aeruginosa clinical isolate PA259 assessed as doxycycline MIC incubated for 18 hrs in presence of doxycycline by two fold broth microdilution checkerboard assay
[20] = test system: Acinetobacter baumannii; experiment: Antibacterial activity against multi-drug resistant Acinetobacter baumannii clinical isolate AB031 assessed as inhibition of bacterial growth incubated for 18 hrs by two fold broth microdilution assay
[21] = test system: Acinetobacter baumannii; experiment: Antibiotic adjuvant activity against multi-drug resistant Acinetobacter baumannii clinical isolate AB027 assessed as fractional inhibitory concentration index incubated for 18 hrs in presence of Rifampicin by two fold broth microdilution checkerboard assay
[22] = test system: Pseudomonas aeruginosa; experiment: Antibiotic adjuvant activity against multi-drug resistant Pseudomonas aeruginosa clinical isolate PA264 assessed as minocycline MIC incubated for 18 hrs in presence of minocycline by two fold broth microdilution checkerboard assay
[23] = test system: Acinetobacter baumannii; experiment: Antibiotic adjuvant activity against multi-drug resistant Acinetobacter baumannii clinical isolate AB031 assessed as fractional inhibitory concentration index incubated for 18 hrs in presence of Rifampicin by two fold broth microdilution checkerboard assay
[24] = test system: Pseudomonas aeruginosa; experiment: Antibiotic adjuvant activity against multi-drug resistant Pseudomonas aeruginosa clinical isolate PA264 assessed as inhibition of bacterial growth incubated for 18 hrs in presence of Rifampicin by two fold broth microdilution checkerboard assay
[25] = test system: Acinetobacter baumannii; experiment: Antibiotic adjuvant activity against Acinetobacter baumannii ATCC 17978 assessed as fold potentiation at 16 ug/ml incubated for 18 hrs in presence of rifampicin and 25 % FBS media by two fold broth microdilution checkerboard assay; conditions: dose 16 µg/ml
[26] = test system: Acinetobacter baumannii; experiment: Antibiotic adjuvant activity against Acinetobacter baumannii ATCC 17978 assessed as fold increase in MIC incubated for 18 hrs in presence of rifampicin and CAMHB Mg2+ media by two fold broth microdilution checkerboard assay
[27] = test system: Pseudomonas aeruginosa; experiment: Antibiotic adjuvant activity against multi-drug resistant Pseudomonas aeruginosa clinical isolate PA114228 assessed as doxycycline MIC incubated for 18 hrs in presence of doxycycline by two fold broth microdilution checkerboard assay

For Cl.NC[C@H]1O[C@H](O[C@H]2[C@H](OCc3ccccc3)[C@@H](O[C@H]3O[C@H](COCc4ccccc4)[C@@H](OCc4ccccc4)[C@H](N)[C@H]3OCc3ccccc3)[C@H](N)C[C@@H]2N)[C@H](N)C[C@@H]1OCc1ccccc1, the MIC [1] was 0.008 µg/mL, the MIC [2] was 8 µg/mL and the MIC [3] was 64 µg/mL. The MIC [4] was 4 µg/mL, the “fractional inhibitory concentration index (FICI)” value [5] was 1.5 and the MIC [6] was 8 µg/mL. The “fractional inhibitory concentration index (FICI)” value [7] was 1.063, the “fold change (FC)” value [8] was 1 and the “fold change (FC)” value [9] was 4. For the same molecule, the MIC [10] was 0.5 µg/mL, the “fractional inhibitory concentration index (FICI)” value [11] was 1.063 and the MIC [12] was no more than 4 µg/mL. For the same molecule, the “fractional inhibitory concentration index (FICI)” value [13] was 0.129, the MIC [14] was 64 µg/mL and the “fold change (FC)” value [15] was 1. For the same molecule, the “fractional inhibitory concentration index (FICI)” value [16] was 1.25, the MIC [17] was 8 µg/mL and the “fold change (FC)” value [18] was 4. For the same molecule, the MIC [19] was 256 µg/mL, the MIC [20] was 32 µg/mL and the “fractional inhibitory concentration index (FICI)” value [21] was 0.125. The MIC [22] was 16 µg/mL, the “fractional inhibitory concentration index (FICI)” value [23] was 0.251 and the MIC [24] was 8 µg/mL. For the same molecule, the “fold change (FC)” value [25] was 32, the “fold change (FC)” value [26] was “>=2” and the MIC [27] was greater than 128 µg/mL.
